{"source": "patent US10653744B2", "about": "“Formulations and methods for treating ulcerative colitis” (priority 2016, dated 2020)", "key": {"[1]": {"tested_on": "TNBS-induced acute colitis", "conditions": "oral treatment, murine model; cited from earlier work"}, "[2]": {"tested_on": "patients with mild to moderate ulcerative colitis", "experiment": "Double-blind, placebo-controlled, four-week study of rectal dolcanatide in ulcerative colitis patients", "assay_type": "in vivo, human", "conditions": "for improvement of ulcerative colitis symptoms compared with placebo-treated patients: 6 mg dissolved in saline, intra-rectally every evening for 28 days, 28 patients", "method": "A double-blind, placebo-controlled, four-week study evaluating 28 patients with mild-to-moderate ulcerative colitis was conducted. Patients received 6 mg Dolcanatide dissolved in saline administered intra-rectally each evening for 28 days.\nA double-blind, placebo-controlled, four week study was performed evaluating 28 patients with mild to moderate ulcerative colitis. Subjects were treated with either saline (placebo) or Dolcanatide (SP-333; SEQ ID NO: 9). Six mg of Dolcanatide was dissolved in saline and administered intra-rectally every evening for 28 days."}, "[3]": {"tested_on": "DSS-induced acute colitis", "conditions": "oral treatment, murine model; cited from earlier work"}}, "note": "Positions of bridges follow the written chain, without caps; N, C: chain ends. Non-standard residues stand in square brackets, D forms with d. No end group written: not given here.", "data": [{"substance": "dAsn^1-Asp^2-Glu^3-Cys^4-Glu^5-Leu^6-Cys^7-Val^8-Asn^9-Val^10-Ala^11-Cys^12-Thr^13-Gly^14-Cys^15-dLeu^16 ([dN]DECELCVNVACTGC[dL]; disulfide 4-12, 7-15; ends not checked) [Dolcanatide]", "values": [{"measurement": "effect on TNBS-induced acute colitis", "setting": "[1]", "result": "ameliorate"}, {"measurement": "improvement of ulcerative colitis symptoms compared with placebo-treated patients", "setting": "[2]", "result": "Improved Ulcerative Colitis Symptoms"}, {"measurement": "improvement of ulcerative colitis symptoms compared with placebo-treated patients", "setting": "[2]; listed as dolcanatide", "result": "clear signals of improvement"}, {"measurement": "safety and tolerability", "setting": "[2]; 6 mg intra-rectally each evening for 28 days", "result": "safe and well tolerated"}, {"measurement": "remission from ulcerative colitis symptoms", "setting": "[2]; after 28 days of treatment, 6 mg intra-rectally every evening", "result": "in remission from their ulcerative colitis symptoms"}, {"measurement": "effect on DSS-induced acute colitis", "setting": "[3]", "result": "ameliorate"}]}]}
